Patent US20230416248A1, “COMPOUNDS AND USES THEREOF” (Foghorn Therapeutics Inc., priority 2020, published 2023)
Where two headings read alike, the source gives them in different places.

Key:
BRM = target: T1, BRM (Homo sapiens, UniProt P51531); assay: ATPase catalytic activity of BRM, ADP-Glo in vitro biochemical assay; conditions: for IC50: 30 nM BRM, 400 μM ATP; for Ratio* (BRG1 IC50 (μM) divided by BRM IC50 (μM)): selectivity ratio BRG1 IC50 / BRM IC50
T1 construct: made in house; host or cells: High Five insect cells
T1 sequence (P51531 whole entry): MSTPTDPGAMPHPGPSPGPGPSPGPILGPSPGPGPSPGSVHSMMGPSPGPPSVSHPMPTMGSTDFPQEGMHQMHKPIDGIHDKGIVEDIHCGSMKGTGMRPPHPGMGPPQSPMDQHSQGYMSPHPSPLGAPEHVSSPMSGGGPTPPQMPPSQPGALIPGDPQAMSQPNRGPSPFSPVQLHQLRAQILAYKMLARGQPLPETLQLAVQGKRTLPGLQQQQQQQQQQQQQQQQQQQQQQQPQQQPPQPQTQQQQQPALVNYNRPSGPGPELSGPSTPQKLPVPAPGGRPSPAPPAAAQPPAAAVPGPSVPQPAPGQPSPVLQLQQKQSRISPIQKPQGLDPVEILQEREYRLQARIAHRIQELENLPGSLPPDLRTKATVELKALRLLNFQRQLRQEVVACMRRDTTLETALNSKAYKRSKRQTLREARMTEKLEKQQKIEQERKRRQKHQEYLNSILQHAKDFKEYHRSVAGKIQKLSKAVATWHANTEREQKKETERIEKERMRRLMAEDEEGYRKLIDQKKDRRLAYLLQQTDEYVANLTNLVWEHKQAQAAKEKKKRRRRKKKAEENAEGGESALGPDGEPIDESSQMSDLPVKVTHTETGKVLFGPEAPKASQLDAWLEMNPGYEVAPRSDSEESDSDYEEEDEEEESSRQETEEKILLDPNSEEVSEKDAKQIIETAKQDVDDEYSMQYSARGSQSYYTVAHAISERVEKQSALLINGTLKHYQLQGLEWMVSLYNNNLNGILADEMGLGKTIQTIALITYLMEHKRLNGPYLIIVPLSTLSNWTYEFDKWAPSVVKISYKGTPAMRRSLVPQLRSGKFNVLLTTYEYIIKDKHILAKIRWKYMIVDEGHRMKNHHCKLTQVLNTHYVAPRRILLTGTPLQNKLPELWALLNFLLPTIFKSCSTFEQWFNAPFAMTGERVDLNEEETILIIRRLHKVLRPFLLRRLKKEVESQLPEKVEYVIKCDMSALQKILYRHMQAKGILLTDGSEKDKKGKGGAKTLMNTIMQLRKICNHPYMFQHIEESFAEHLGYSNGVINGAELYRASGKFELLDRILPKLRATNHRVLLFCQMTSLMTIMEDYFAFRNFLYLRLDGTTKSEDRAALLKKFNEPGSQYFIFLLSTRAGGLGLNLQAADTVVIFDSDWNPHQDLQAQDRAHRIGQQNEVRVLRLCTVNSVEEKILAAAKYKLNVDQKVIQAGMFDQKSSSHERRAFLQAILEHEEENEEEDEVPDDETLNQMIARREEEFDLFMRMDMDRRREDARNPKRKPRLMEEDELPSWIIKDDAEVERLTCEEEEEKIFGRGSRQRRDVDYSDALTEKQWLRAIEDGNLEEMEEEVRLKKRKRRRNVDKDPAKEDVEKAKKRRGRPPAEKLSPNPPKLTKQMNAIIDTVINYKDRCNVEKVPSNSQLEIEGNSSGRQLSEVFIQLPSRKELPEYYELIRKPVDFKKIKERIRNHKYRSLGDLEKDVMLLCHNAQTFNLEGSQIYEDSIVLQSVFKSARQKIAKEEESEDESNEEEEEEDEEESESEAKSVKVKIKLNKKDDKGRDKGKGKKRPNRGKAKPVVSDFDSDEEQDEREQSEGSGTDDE
In short: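 Recombinant BRM (30 nM) hydrolysed 400 μM ATP with 20 nM salmon sperm DNA in pH 8 Tris buffer containing 20 mM MgCl2, 50 mM NaCl, 0.1% Tween-20 and 1 mM DTT, 1 h at room temperature. ADP formed was quantified by ADP-Glo luminescence.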

BRG-1 = target: T2, BRG-1 (Homo sapiens, UniProt P51532); assay: ATPase catalytic activity of BRG-1, ADP-Glo in vitro biochemical assay; conditions: 30 nM BRG-1, 400 μM ATP, read-out: BRG1 IC50
T2 construct: made in house; host or cells: High Five insect cells
T2 sequence (P51532 whole entry): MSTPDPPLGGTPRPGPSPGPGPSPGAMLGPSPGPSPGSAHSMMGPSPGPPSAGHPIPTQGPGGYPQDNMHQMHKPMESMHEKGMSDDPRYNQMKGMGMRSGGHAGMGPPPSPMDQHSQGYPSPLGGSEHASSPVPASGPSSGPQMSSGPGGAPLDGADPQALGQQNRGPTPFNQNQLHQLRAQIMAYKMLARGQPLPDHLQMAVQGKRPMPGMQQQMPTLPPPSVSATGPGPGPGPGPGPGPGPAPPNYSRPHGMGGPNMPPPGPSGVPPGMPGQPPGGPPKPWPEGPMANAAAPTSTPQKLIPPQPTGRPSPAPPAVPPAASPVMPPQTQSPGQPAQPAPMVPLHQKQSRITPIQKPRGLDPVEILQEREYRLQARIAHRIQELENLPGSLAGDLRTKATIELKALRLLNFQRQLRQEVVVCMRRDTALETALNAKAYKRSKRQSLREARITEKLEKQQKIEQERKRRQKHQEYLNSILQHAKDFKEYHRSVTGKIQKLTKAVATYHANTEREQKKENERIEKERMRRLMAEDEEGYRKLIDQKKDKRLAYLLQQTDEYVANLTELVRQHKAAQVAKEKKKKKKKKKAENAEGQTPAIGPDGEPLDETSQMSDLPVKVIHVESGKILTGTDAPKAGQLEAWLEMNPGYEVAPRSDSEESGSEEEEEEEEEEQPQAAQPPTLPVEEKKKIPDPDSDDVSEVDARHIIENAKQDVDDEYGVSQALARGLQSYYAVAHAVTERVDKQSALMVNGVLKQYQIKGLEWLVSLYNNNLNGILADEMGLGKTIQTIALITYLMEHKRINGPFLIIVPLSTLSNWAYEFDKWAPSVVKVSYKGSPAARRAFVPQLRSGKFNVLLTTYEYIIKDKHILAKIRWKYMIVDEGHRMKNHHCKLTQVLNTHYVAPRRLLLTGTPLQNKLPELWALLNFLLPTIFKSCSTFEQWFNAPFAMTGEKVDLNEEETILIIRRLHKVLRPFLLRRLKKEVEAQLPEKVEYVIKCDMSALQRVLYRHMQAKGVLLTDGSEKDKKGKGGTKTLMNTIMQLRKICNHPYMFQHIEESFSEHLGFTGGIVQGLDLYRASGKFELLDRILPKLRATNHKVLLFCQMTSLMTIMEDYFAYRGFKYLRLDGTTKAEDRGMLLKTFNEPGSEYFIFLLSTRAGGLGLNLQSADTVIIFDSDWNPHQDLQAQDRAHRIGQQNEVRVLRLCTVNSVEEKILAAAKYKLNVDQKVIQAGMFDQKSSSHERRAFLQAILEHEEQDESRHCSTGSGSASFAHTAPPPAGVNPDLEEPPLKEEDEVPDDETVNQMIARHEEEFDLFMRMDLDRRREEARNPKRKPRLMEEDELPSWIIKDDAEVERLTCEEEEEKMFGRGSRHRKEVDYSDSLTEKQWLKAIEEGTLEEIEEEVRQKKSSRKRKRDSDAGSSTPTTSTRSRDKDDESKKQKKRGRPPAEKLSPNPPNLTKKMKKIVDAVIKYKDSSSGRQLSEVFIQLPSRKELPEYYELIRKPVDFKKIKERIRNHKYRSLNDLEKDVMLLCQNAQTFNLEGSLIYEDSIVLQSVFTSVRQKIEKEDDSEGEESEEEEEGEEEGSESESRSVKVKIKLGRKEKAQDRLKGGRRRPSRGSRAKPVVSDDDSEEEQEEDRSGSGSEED
In short: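 BRG-1 ATPase activity was measured in vitro by ADP-Glo. After the reaction, ADP-Glo Reagent depleted unconsumed ATP (40 min, room temperature), then Kinase Detection Reagent converted product ADP to ATP (60 min, room temperature), and luciferase luminescence was read.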

[1] = ATPase catalytic activity, ADP-Glo

IC50 (BRM; ADP-Glo ATPase assay)	Ratio* (BRG1 IC50 (μM) divided by BRM IC50 (μM)) (BRM)	IC50 (BRG-1; ADP-Glo ATPase assay)	Ratio* (BRM; ratio BRG1 IC50 / BRM IC50)	IC50 (BRM; [1])	Ratio* (BRM; ratio of BRG1 IC50 to BRM IC50)	IC50 (BRG-1; [1])	SMILES
29.8 nM		153 nM	5.13				C[C@@H]1CN(c2cccc(-c3cnc4cnc(CNC(=O)c5ccc6c(c5)S(=O)(=O)[C@@H](C)COC6)cc4n3)n2)C[C@H](C)O1 [Compound 710]
119 nM	23.47	2800 nM					COCc1ccc(C(=O)NCc2cc3nc(-c4cncc(C5CC5)n4)ccc3cn2)cc1S(C)(=O)=O [Compound 273]
				165 nM	6.68	1100 nM	O=C(NCc1cc2nc(-c3cccc4c3OCC[C@@H]4OC3COC3)ccc2cn1)c1ccc2c(c1)S(=O)(=O)CCOC2 [Compound 410]
6.8 nM	11.74	79.4 nM					CCN(CCOC)c1cccc(-c2ccc3cnc(CNC(=O)c4ccc5c(c4)S(=O)(=O)CCOC5)cc3n2)n1 [Compound 73]
200 nM	25.03	5000 nM					Cc1c(Cl)cc(C(=O)NCc2cc3nc(-c4cncc(C5CC5)n4)ccc3cn2)cc1S(C)(=O)=O [Compound 269]
21.2 nM		184 nM	8.66				CN(C)c1ccc2c(n1)OCCN2c1ccc2cnc(CNC(=O)c3ccc4c(c3)S(=O)(=O)CCOC4)cc2n1 [Compound 845]
136 nM	9.05	1230 nM					C[C@]1(c2cccc(-c3ccc4cnc(CNC(=O)c5ccc6c(c5)S(=O)(=O)CCOC6)cc4n3)n2)CC1(F)F [Compound 219]
				20.9 nM	8.47	177 nM	N#Cc1ccc2c(c1)CCCN2c1ccc2cnc(CNC(=O)c3ccc4c(c3)S(=O)(=O)CCOC4)cc2n1 [Compound 527]
36.7 nM	11.15	409 nM					C[C@@H]1CN(c2cccc(-c3ccc4cnc(CNC(=O)c5ccc6c(c5)S(=O)(=O)[C@H](C)COC6)cc4n3)n2)C[C@H](C)O1 [Compound 159]
10.3 nM	6.56	67.7 nM					C[C@@H]1CN(c2cccc(-c3ccc4cnc([C@H](C)NC(=O)c5ccc6c(c5)S(=O)(=O)CCOC6)cc4n3)n2)C[C@H](C)O1 [Compound 122]
				9.5 nM	13.13	125 nM	CO[C@@H]1CCN(c2cccc(-c3ccc4cnc(CNC(=O)c5ccc6c(c5)S(=O)(=O)CCOC6)cc4n3)n2)C[C@H]1C [Compound 353]

Second part, the molecule before the results:

SMILES	IC50 (BRM; ADP-Glo ATPase assay)	Ratio* (BRG1 IC50 (μM) divided by BRM IC50 (μM)) (BRM)	IC50 (BRG-1; ADP-Glo ATPase assay)	Ratio* (BRM; ratio BRG1 IC50 / BRM IC50)	IC50 (BRM; [1])	Ratio* (BRM; ratio of BRG1 IC50 to BRM IC50)	IC50 (BRG-1; [1])
CC(C)Oc1cccc(-c2ccc3cnc(CNC(=O)c4ccc5c(c4)S(=O)(=O)CCOC5)cc3n2)n1 [Compound 165]	116 nM	18.39	2120 nM				
O=C(NCc1cc2nc(N3CCCc4cc5c(cc43)OCCO5)ccc2cn1)c1ccc2c(c1)S(=O)(=O)CCOC2 [Compound 793]	11.8 nM		140 nM	11.88			
O=C(NCc1cc2nc(N3CCOc4cc(F)cnc43)ccc2cn1)c1ccc2c(c1)S(=O)(=O)CCOC2 [Compound 737]	10.4 nM		227 nM	21.91			
C[C@@H]1CN(c2cccc(-c3ccc4cnc(CNC(=O)c5cnc6c(c5)S(=O)(=O)CCC5CC65)cc4n3)n2)C[C@H](C)O1 (mixture of isomers) [Compound 528]					7.9 nM	4.24	33.6 nM
CO[C@@H]1CCS(=O)(=O)c2cc(C(=O)NCc3cc4nc(-c5cccc(N6C[C@@H](C)O[C@@H](C)C6)n5)ccc4cn3)ccc2C1 [Compound 446]					11.2 nM	2.83	31.7 nM
CN1CCCc2ccc(C(=O)NCc3cc4nc(-c5cncc(C6CC6)n5)ccc4cn3)cc2S1(=O)=O [Compound 297]	140 nM	14.47	2030 nM				
C[C@@H]1COC[C@H](C)N1c1cccc(-c2ccc3cnc(CNC(=O)c4ccc5c(c4)S(=O)(=O)CCOC5)cc3n2)n1 [Compound 104]	203 nM	4.45	903 nM				
COc1cc2c(cn1)CCCN2c1ccc2cnc(CNC(=O)c3ccc4c(c3)S(=O)(=O)CCOC4)cc2n1 [Compound 768]	10.7 nM		126 nM	11.76			
O=C(NCc1cc2nc(N3CC4CC4c4cccnc43)ccc2cn1)c1ccc2c(c1)S(=O)(=O)CCOC2 (stereo not drawn) [Compound 855]	395 nM		3800 nM	9.60			
COC[C@@H]1COc2c(-c3ccc4cnc(CNC(=O)c5ccc6c(c5)S(=O)(=O)CCOC6)cc4n3)cccc2N1C [Compound 639]					102 nM	7.66	780 nM
CO[C@@H]1C[C@@H]1N(C)c1cccc(-c2ccc3cnc(CNC(=O)c4ccc5c(c4)S(=O)(=O)[C@@H](C)COC5)cc3n2)n1 [Compound 668]					8.4 nM	8.70	73.4 nM
COC[C@H]1C[C@H]1c1cccc(-c2ccc3cnc(CNC(=O)c4ccc5c(c4)S(=O)(=O)CCOC5)cc3n2)n1 [Compound 346]					368 nM	7.55	2770 nM
C[C@@H]1CN(c2cccc(-c3ccc4cnc(CNC(=O)c5cc(F)c6c(c5)S(=O)(=O)CCCO6)cc4n3)n2)C[C@H](C)O1 [Compound 37]	8.6 nM	9.89	85 nM				
O=C(NCc1cc2nc(-c3cccc([C@@H]4CC4(F)F)n3)ccc2cn1)c1ccc2c(c1)S(=O)(=O)CCOC2 [Compound 270]	127 nM	12.44	1570 nM				
C[C@@H]1CN(c2cccc(-c3ccc4cnc(CNC(=O)c5ccc(Cl)c(S(C)(=O)=O)c5)cc4n3)n2)C[C@@H](C)O1 [Compound 177]	15.8 nM	14.02	222 nM				
CN1C(=O)CN(c2ccc3cnc(CNC(=O)c4ccc5c(c4)S(=O)(=O)CCOC5)cc3n2)c2ccccc21 [Compound 511]					329 nM	2.54	835 nM
C[C@H]1COCCN1c1cccc(-c2ccc3cnc(CNC(=O)c4ccc5c(c4)S(=O)(=O)CCOC5)cc3n2)n1 [Compound 178]	180 nM	7.72	1390 nM				
C[C@@H]1CN(c2nccc(-c3ccc4cnc(CNC(=O)c5ccc(Cl)c(S(C)(=O)=O)c5)cc4n3)n2)C[C@H](C)O1 [Compound 180]	17.6 nM	15.48	272 nM				
COc1cccc(-c2ccc3cnc(CNC(=O)c4ccc5c(c4)S(=O)(=O)CCOC5)cc3n2)c1 [Compound 265]	167 nM	14.36	2400 nM				
C[C@@H]1CN(c2cc(-c3ccc4cnc(CNC(=O)c5ccc6c(c5)S(=O)(=O)CCOC6)cc4n3)ccn2)C[C@H](C)O1 [Compound 153]	46.3 nM	9.74	451 nM				
O=C(NCc1cc2nc(-c3cccc(N4CCC(F)(F)C4)n3)ccc2cn1)c1ccc2c(c1)S(=O)(=O)CCOC2 [Compound 202]	17.9 nM	7.59	136 nM				
C[C@@H]1CN(c2cccc(-c3ccc4cnc(CNC(=O)c5ccc6c(c5)S(=O)(=O)CCOC6)cc4n3)n2)C[C@@H](C)O1 [Compound 215]	7 nM	9.47	66.2 nM				
